Read-outs that look alike come from different tables or passages of the source.
Assays:
[1] = system: human immunodeficiency virus type 1 (HIV-1); assay: Inhibitory activity against HIV (EC50), cell-based luciferase reporter assay
From the text: […]. Experimental procedures were essentially as described by Connor et al. in Journal of Virology (1996), 70: 5306-5311 (Characterization of the functional properties of env genes from long-term survivors of human immunodeficiency virus type 1 infection), and Popik et al. in Journal of Virology (2002), 76: 4709-4722 (Human immunodeficiency virus type 1 uses lipid raft-colocalized CD4 and chemokine receptors for productive entry into CD4^+ T cells). It should be particularly appreciated that the virus contains two introduced mutations in the RT gene (K103N and Y181C, created by PCR mutagenesis) that render the virus highly resistant to current non-nucleoside HIV-1 drugs. Virus stocks were generated by cotransfection of plasmid DNA encoding VSV-G with vector pNL4-3Env(−)Luc(+) into 293T cells. Sixty-four hours after transfection, virus-containing medium was collected by centrifugation and stored frozen at −80° C.
HeLa cells were infected with the VSV-G pseudotyped virus in the presence of screening compounds in a 384-well microtiter plate format. Forty-eight hours after initial infection, lysis buffer and Luciferase Assay Reagent (Promega) was added to the cells and luciferase activity was determined by counting the resultant luminescence using a LJL luminometer. Since the luciferase gene is carried in the virus genome, its expression level directly reflects the virus replication level in the presence of a compound.
To evaluate the activity of the compounds against wild type HIV-1, the HeLa-JC53 cell line that expresses high levels of CD4 and CCR5 (see e.g., Platt et al. in Journal of Virology (1998), 72: 2855-2864: Effect of CCR5 and CD4 cell surface concentrations on infection by macrophagetropic isolates of human immunodeficiency virus type 1) was modified by isolation of a stable cell line that expresses luciferase under the control of the HIV-1 promoter (long terminal repeat, i.e., LTR). HIV-1 infection of this cell line stimulates the transcription of luciferase from the HIV-1 promoter and the luciferase gene expression level is proportional to the level of virus replication (Harrington et al. in Journal of Virology Methods (2000), 88: 111-115: Direct detection of infection of HIV-1 in blood using a centrifugation-indicator cell assay; and Roos et al. in Virology (2000), 273: 307-315: LuSIV cells: a reporter cell line for the detection and quantitation of a single cycle of HIV and SIV replication). Procedures for virus infection, compound testing and luciferase activity determination were the same as for the VSV-G pseudotyped HIV-1.

wild-type HIV RT = target: T1, wild-type HIV RT (Human immunodeficiency virus type 1 group M subtype B, UniProt P03366); assay: IC50 for wild-type HIV RT; format: biochemical
T1 construct: IC50 is indicated in microM for wild-type HIV RT

[2] = Table 1, inhibitory activity against HIV, read-out: EC50

Compound | EC50 ([1]; Human immunodeficiency virus 1) [µM] | IC50 (wild-type HIV RT; Table 1) [µM] | EC50 [1, 2] [µM] | IC50 (wild-type HIV RT; Table 1, numeric value) [µM]
CC(=O)c1ccc(NC(=O)CSc2nnc(C)n2-c2ccc(C)cc2)cc1 [compound 41] | > 100 | 10 to 100 | – | –
Cc1ccc(-n2c(C)nnc2SCC(=O)Nc2ccc(C)c(Cl)c2)cc1 [compound 39] | – | – | > 100 | –
Cc1ccc(NC(=O)CSc2nnc(Cc3ccccc3)n2C)c(Br)c1 [compound 29] | – | 10 to 100 | > 100 | –
Cc1ccccc1NC(=O)CSc1nnc(-c2ccc(Cl)cc2)[nH]1 [compound 26] | – | – | 10 to 100 | –
Cc1ccc(NCc2nnc(SCC(=O)Nc3ccc(C)cc3Br)n2-c2ccccc2)cc1 [compound 33] | > 100 | 10 to 100 | – | –
Cc1nnc(SCC(=O)Nc2ccccc2C(F)(F)F)n1-c1ccccc1Cl [compound 23] | – | – | > 100 | –
Cc1cc(C)c(NC(=O)CSc2nnc(C)n2-c2ccccc2)c(C)c1 [compound 51] | – | – | > 100 | –
O=C(CSc1nnc(C2CCCCC2)n1-c1ccccc1)Nc1ccccc1Br [compound 34] | > 100 | 10 to 100 | – | –
Cc1ccc(NC(=O)CSc2nnc(-c3ccncc3)n2-c2ccccc2Cl)c(Br)c1 [compound 46] | > 100 | > 100 | – | –
Cc1ccc(NC(=O)CSc2nnc(-c3ccccc3C)n2-c2ccccc2)c(Br)c1 [compound 52] | > 100 | 10 to 100 | – | –
Cc1ccc(NC(=O)CSc2nnc(COc3ccc(C#N)cc3)n2-c2ccccc2)c(Br)c1 [compound 44] | > 100 | 10 to 100 | – | –
Cc1ccc(NC(=O)CSc2nnc(C)n2-c2ccccc2)cc1C [compound 30] | – | – | > 100 | –
Cc1ccc(NC(=O)CSc2nnc(C)n2-c2ccccc2)cc1 [compound 47] | – | – | > 100 | –
Cn1c(SCC(=O)Nc2ccccc2)nnc1-c1ccc(Br)cc1 [compound 27] | – | – | > 100 | –
O=C(CSc1nnc(-c2ccncc2)n1-c1ccccc1)Nc1ccccc1I [compound 24] | – | – | > 100 | –
Cc1cccc(NC(=O)CSc2nnc(C)n2-c2ccccc2)c1 [compound 40] | – | 10 to 100 | > 100 | –
Cc1ccc(NC(=O)C(C)Sc2nnc(C)n2-c2ccc(C)cc2)cc1 (stereo not drawn) [compound 45] | – | – | > 100 | 36.3
Cc1ccc(-n2c(SCC(=O)Nc3ccc(C)cc3Br)nnc2-c2ccncc2)cc1 [compound 36] | – | – | > 100 | –
O=C(CSc1nnc(-c2ccc(Cl)cc2)n1-c1ccccc1)Nc1ccccn1 [compound 25] | – | – | > 100 | –
Cc1nnc(SCC(=O)Nc2ccccc2)n1-c1ccccc1 [compound 49] | – | – | > 100 | –
Cc1ccc(-c2nnc(SCC(=O)Nc3ccccc3Br)n2C)cc1 [compound 37] | – | – | > 100 | –

Reference: patent publication US20080249131A1, “NON-NUCLEOSIDE REVERSE TRANSCRIPTASE INHIBITORS” (priority 2002, published 2008)
